Data: patent US20190071796A1, “PROCESS AND APPARATUS FOR MAKING ALIGNED OR TWISTED ELECTROSPUN FIBERS AND DEVICES” (The Johns Hopkins University, priority 2016, published 2019)

Assay: In vitro release of sunitinib from PLGA nanofiber-based mesh
Type: physicochemical
Conditions: 10% sunitinib/PLGA (w/w) (FIG. 14)

CCN(CC)CCNC(=O)c1c(C)[nH]c(/C=C2\C(=O)Nc3ccc(F)cc32)c1C [sunitinib, Sunitinib malate]
duration of in vitro sustained release: 30 days
